Key:
[1] = test system: Bacillus subtilis oxalate decarboxylase (OxDc); settings: even under a condition of an ideal pH value; read-out: Kin value; cited from earlier work
[2] = biological target: Agrocybe aegerita glycosylated oxalate decarboxylase (OxDc), naturally expressed by acid induction; assay: Determination of Km of Agrocybe aegerita oxalate decarboxylase by double reciprocal method; oxalate degradation by HPLC, 37° C.; type: biochemical
Procedure: In this invention, high performance liquid chromatography (HPLC) is used to determine the activity of oxalate decarboxylase. The operation process is as follows: preheating 1.0 mL 5 mM (mmol/L) oxalate solution (25 mM citrate buffer solution contained, pH 3.0) at 37° C. for 10 min and adding 0.01-0.1 ml (added volume is adjusted according to enzyme concentration) solution containing oxalate decarboxylase or fungus powder suspension into the oxalate solution for reaction; adding 50 μL 2.5M (molar concentration) H2SO4 to inactivate the enzyme after reacting for 30 minutes; quickly centrifuging the reaction solution and collecting supernatant to determine the concentration of residual oxalate by using HPLC. One enzyme activity unit (U) is defined as the required enzyme amount to degrade 1 micromole oxalate per minute on this condition.
The enzyme activity of the purified glycosylated oxalate decarboxylase obtained in Embodiment 2 was determined at pH 3.0, and the result is shown in Table 1. […] Different enzyme batches show the Kin value between 0.03 and 1.0 mM at different pH (pH 2.5-6.0), and the average Kin value at optimal pH range of pH 2.5-3.0 is 0.06 mM, as is shown in Table 2.

## O=C(O)C(=O)O [oxalate]
[1]
  Km: 4000 µM
[2]; optimal pH range pH 2.5-3.0
  Kin value (average at optimal pH): 0.06 mM
[2]; pH 3.0-3.5
  Km: 120 ± 40 µM
[2]; pH 3.5-4.0
  Km: 200 ± 30 µM
[2]; pH 4.0-4.5
  Km: 250 ± 80 µM
[2]; pH 4.5-5.0
  Km: 360 ± 130 µM
[2]; pH 5.0-6.0
  Km: 700 ± 300 µM

— US11085033B2, “Glycosylated oxalate decarboxylase and preparation and application thereof” (WUHAN KANGFUDE BIOTECHNOLOGY CO., LTD., priority 2016, dated 2021)
